From article PMC3835719 (MedChemComm, 2013)
pIC50: −log10 of the molar value.

Tests used:
[1] = system: MCF-7 (estrogen receptor positive) breast cancer cells; assay: MTT cell growth inhibition, MCF-7 breast cancer cells; type: cell-based, human; details: ratio of IC50 values parent NSAID/NOSH-NSAID, 24 hr
[2] = system: human mammary epithelial cell line (HMEpC); assay: Cell growth inhibition, normal mammary epithelial cells; type: cell-based; details: IC50 at 24h, HMEpC vs MCF-7
[3] = system: HT-29 human colon cancer cells; assay: MTT cell growth inhibition, HT-29 colon cancer cells; type: cell-based; details: for Potency enhancement, Colon HT-29: ratio of IC50 values parent NSAID/NOSH-NSAID, 24 hr
[4] = system: human cancer cell lines of colon, breast, pancreas, and leukemia; assay: MTT cell growth inhibition, panel of four cancer cell lines; type: cell-based; details: ratio of IC50 values parent/NOSH compound, 24 h
[5] = system: HT-29 human colon cancer cells; assay: Cell cycle phases by PI staining and flow cytometry; type: cell-based; details: at IC50
[6] = system: Jurkat T human leukemia cells; assay: MTT cell growth inhibition, Jurkat T leukemia cells; type: cell-based; details: ratio of IC50 values parent NSAID/NOSH-NSAID, 24 hr
[7] = system: BxPC-3 human pancreatic cancer cells; assay: MTT cell growth inhibition, BxPC-3 pancreatic cancer cells; type: cell-based; details: ratio of IC50 values parent NSAID/NOSH-NSAID, 24 hr
[8] = system: HT-29 human colon cancer cells; assay: Proliferation by PCNA antigen expression; type: cell-based; details: at IC50 for cell growth inhibition, 24 hrs
[9] = system: human primary pancreatic epithelial cells (HPDE, ACBRI 515); assay: Cell growth inhibition, normal pancreatic epithelial cells; type: cell-based; details: 24 h, read-out: IC50 for cell growth inhibition, Pancreatic Epithelial HPDE (ACBRI 515)

## C[C@H](C(=O)Oc1ccc(-c2cc(=S)ss2)cc1)c1ccc2cc(OC(=O)CCCO[N+](=O)[O-])ccc2c1 [NOSH-NAP, (S)-6-(1-oxo-1-(4-(3-thioxo-3H-1,2-dithiol-5-yl)phenoxy)propan-2-yl) naphthalen-2-yl 4-(nitrooxy) butanoate]
[1]
  Potency enhancement, Breast MCF-7: ~20,000
[2]
  Fold more potent in breast cancer cell line (MCF-7) than in normal HMEpC cells: approximately 115 fold
[3]; HT-29, intact molecule vs naproxen plus SNAP and ADT-OH
  Fold more potent than the combination (sum of its parts): approximately 8000 fold
[3]
  Potency enhancement, Colon HT-29: ~34,000
[4]
  Enhanced potency over parent compound, range over the cancer cell lines: 16,000-34,000 fold
[5]
  Mode of cell cycle arrest: G0/G1 cell cycle block
[6]
  Potency enhancement, Leukemia Jurkats: ~25,000
[7]
  Potency enhancement, Pancreas BxPC-3: ~16,000
[8]
  Reduction of proliferation (PCNA expression): approximately 50%

## CC1=C(CC(=O)Oc2ccc(OC(=O)CCCO[N+](=O)[O-])c(C(=O)Oc3ccc(-c4cc(=S)ss4)cc3)c2)c2cc(F)ccc2/C1=C\c1ccc([S+](C)[O-])cc1 (stereo not drawn) [NOSH-SUL, (Z)-4-(3-thioxo-3H-1,2-dithiol-5-yl) phenyl 5-(2-(5-fluoro-2-methyl-1-(4-(methylsulfinyl)benzylidene)-1H-inden-3-yl)acetoxy)-2-((4-(nitrooxy)butanoyl)oxy) benzoate]
[9]
  pIC50: < 4.60
[1]
  Potency enhancement, Breast MCF-7: ~9,650
[2]
  Fold more potent in breast cancer cell line (MCF-7) than in normal HMEpC cells: about 150 fold
[3]
  Potency enhancement, Colon HT-29: ~9,000
[4]
  Enhanced potency over parent compound, range over the cancer cell lines: 2,500-9,650 fold
[5]
  Mode of cell cycle arrest: G2/M block
[6]
  Potency enhancement, Leukemia Jurkats: ~2,500
[7]
  Potency enhancement, Pancreas BxPC-3: ~8,200
[8]
  Reduction of proliferation (PCNA expression): approximately 50%
